According to paper PMC6381168, “Anoctamin-4 is a bona fide Ca^2+-dependent non-selective cation channel” (Scientific Reports, 2019):

Target: T1, Ano4 (Mus musculus, UniProt Q8C5H1)
T1 construct: full length, 955 residues, C-terminal Myc tag (pcDNA3), transiently expressed in HEK293 cells
T1 sequence (Q8C5H1 1-955): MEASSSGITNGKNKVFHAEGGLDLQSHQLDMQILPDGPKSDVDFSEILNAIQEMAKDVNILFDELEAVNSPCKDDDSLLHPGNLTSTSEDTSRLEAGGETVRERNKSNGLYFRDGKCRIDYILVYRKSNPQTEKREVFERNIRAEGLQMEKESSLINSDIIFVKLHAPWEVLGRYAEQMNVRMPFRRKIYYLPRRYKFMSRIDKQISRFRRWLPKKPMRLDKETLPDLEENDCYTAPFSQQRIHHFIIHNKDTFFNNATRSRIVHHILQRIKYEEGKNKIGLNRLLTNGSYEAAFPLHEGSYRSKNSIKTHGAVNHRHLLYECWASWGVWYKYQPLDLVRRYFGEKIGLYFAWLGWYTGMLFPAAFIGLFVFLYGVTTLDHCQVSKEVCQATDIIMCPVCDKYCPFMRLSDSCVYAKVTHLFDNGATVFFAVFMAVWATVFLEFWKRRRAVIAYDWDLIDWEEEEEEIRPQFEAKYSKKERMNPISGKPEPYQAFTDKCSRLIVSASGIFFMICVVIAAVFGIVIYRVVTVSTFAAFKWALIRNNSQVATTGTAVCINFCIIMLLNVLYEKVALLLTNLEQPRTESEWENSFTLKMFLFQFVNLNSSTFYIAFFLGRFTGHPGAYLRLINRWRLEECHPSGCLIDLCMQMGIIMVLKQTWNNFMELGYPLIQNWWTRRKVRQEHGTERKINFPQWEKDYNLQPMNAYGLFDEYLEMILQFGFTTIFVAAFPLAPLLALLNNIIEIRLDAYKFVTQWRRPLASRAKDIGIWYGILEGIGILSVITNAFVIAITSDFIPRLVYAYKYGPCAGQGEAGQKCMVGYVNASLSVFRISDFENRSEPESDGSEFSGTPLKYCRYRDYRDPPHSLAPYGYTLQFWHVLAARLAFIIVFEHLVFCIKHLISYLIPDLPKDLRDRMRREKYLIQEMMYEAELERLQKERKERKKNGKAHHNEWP
Experiment: whole-cell patch clamp, block of ionomycin-activated current
Format: cell-based
Conditions: 100 uM niflumic acid; extracellular Ringer with 1 uM ionomycin, pH 7.2, room temperature; channel blocker

Q: Which “whole-cell patch clamp, block of ionomycin-activated current” value does the source give for `O=C(O)c1cccnc1Nc1cccc(C(F)(F)F)c1` [niflumic acid] here?
A: The Ano4-dependent current was blocked by the application of the fenamate niflumic acid
